Experimental data reported in patent publication US20100144712A1 (priority 2007, published 2010).
In brackets after ≈: the same amount, converted by molar mass.

How the values were obtained:
Assay type in all cases: cell-based
[1] = system: Candida albican ATCC MYA-574; experiment: In vitro antifungal activity (MIC80), Candida albican ATCC MYA-574; settings: Candida; Table 2, MYA 574; read-out: Minimal inhibitory concentration (MIC80)
In short: (§1)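 Broth microdilution in RPMI 1640 with 2% (v/v) final DMSO, test solutions 0.25 to 256 […]. Inoculum of 1.0×10^3–5.0×10^3 CFU/ml came from colonies grown 2–3 days at 35 °C, and alamarBlue was added. MIC80 is the lowest concentration reducing growth by 80% versus untreated control.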

[2] = system: Candida albican ATCC 204276; experiment: In vitro antifungal activity (MIC80), Candida albican ATCC 204276; settings: ATCC204276, Table 2, 204276, read-out: Minimal inhibitory concentration (MIC80)
Procedure: (§2) In vitro antifungal activities of the inventive antifungal compounds were evaluated using test strains including Candida albican (ATCC 90873, 204276, 62342, 64124, 64550, 96901, MYA-573, MYA-574, MYA-575, MYA-576, MYA-1003) and Aspergillus fumigatus (ATCC 16424). Test samples and positive control samples were prepared by dissolving the inventive compounds and comparative compounds, i.e., amphotericin B, fluconazole and itraconazole, in DMSO, respectively, and each successively diluted with medium to obtain test and positive control solutions having test compound concentrations of 0.125 μg/ml to a maximum concentration not generating turbidity. Minimal inhibitory concentration (MIC80) of each compound was determined as the lowest concentration of the test compounds required to reduce growth by 80% relative to a control strain not treated.
(§3) 1) Test strain: Candida albican ATCC 90873, 204276, 62342, 64124, 64550, 96901, MYA-573, MYA-574, MYA-575, MYA-576, MYA-1003, and Aspergillus fumigatus ATCC 16424 were commercially obtained from The American Type Culture Collection (ATCC) and subcultured in CHEMON Co. Ltd. (amphotericin B was commercially purchased from Sigma, and fluconazole and itraconazole were prepared according to methods described in British Patent No. 2,099,818; and U.S. Pat. No. 4,267,179, respectively).
(§4) 2) Medium and culture condition: Candida albican was cultured in Sabourad Dextrose Agar, YM Agar or Potato Dextrose Agar according to ATCC information at a temperature of 37° C., 35° C., 30° C. or 25° C. Aspergillus fumigatus was cultured in Malt Extract Agar or Potato Dextrose Agar at a temperature ranging from 24 to 27° C.
(§5) 3) Preparation of test samples: the inventive compounds and comparative compounds were each diluted with DMSO to obtain 1 to 2 ml of a test sample in a concentration of 100-folds of the determining maximum concentration (256 μg/ml).
(§6) The test samples were each successively diluted with RPMI 1640 to obtain test solutions having concentrations of […] in a 12×75 mm sterilized disposable culture tube. The final concentration of DMSO was adjusted to […] (v/v).
(§7) 5) Preparation of strain solution and inoculation
(§8) Candida albican strains were each subcultured in Sabourad Dextrose Agar, YM Agar or Potato Dextrose Agar medium at 35° C. for 2˜3 days. In the case of yeasts, a single colony was taken from prominent colonies and suspended in 0.85% sterile physiological saline solution and the turbidity of the suspension was adjusted to 80˜82% at 530 nm, and then diluted 50-fold with RPMI 1640 medium to 1.0×10^3˜5.0×10^3 CFU/ml. The turbidity of fungi was adjusted to 80˜82% and the suspension was diluted 50-fold to […]. Aspergillus fumigatus strains were subcultured in Malt Extract Agar for 7˜10 days, and a single colony was taken from prominent colonies and suspended in 0.85% sterile physiological saline solution and the suspension was adjusted to 0.108 at 530 nm, and then diluted 1000-fold with RPMI 1640 medium to 0.4×10^2˜5×10^4 CFU/ml. The turbidity of fungi was adjusted to 80˜82% and the suspension was diluted 50-fold to 0.4102˜0.5104 CFU/ml.
(§9) The strain solutions thus obtained were each seeded into a sterilized 96-well microplate, 0.1 ml of each test solution were added thereto, and […] of alamarblue was treated to each well (Biosource, #DAL1100). This procedure was repeated 2 times.
(§10) Minimal inhibitory concentration (MIC80) of each compound was determined as the lowest concentration of the test compounds required to reduce growth by 80% relative to a control strain not treated.

[3] = system: Candida albican ATCC 64124; experiment: In vitro antifungal activity (MIC80), Candida albican ATCC 64124; settings: Candida, ATCC64124; Table 2, 64124; read-out: Minimal inhibitory concentration (MIC80)
In short: as §1

[4] = system: Candida albican ATCC 96901; experiment: In vitro antifungal activity (MIC80), Candida albican ATCC 96901; settings: Candida, ATCC96901; Table 2, ATCC 96901; read-out: Minimal inhibitory concentration (MIC80)
In short: as §1

[5] = system: Candida albican ATCC MYA-573; experiment: In vitro antifungal activity (MIC80), Candida albican ATCC MYA-573; settings: Candida; Table 2, MYA 573; read-out: Minimal inhibitory concentration (MIC80)
In short: as §1

[6] = system: Candida albican ATCC MYA-575; experiment: In vitro antifungal activity (MIC80), Candida albican ATCC MYA-575; settings: Candida; Table 2, MYA 575; read-out: Minimal inhibitory concentration (MIC80)
In short: as §1

[7] = system: Aspergillus fumigatus (ATCC 16424); experiment: In vitro antifungal activity (MIC80), Aspergillus fumigatus ATCC 16424; settings: Aspergillus fumigatus, ATCC16424, Table 2, ATCC 16424; read-out: Minimal inhibitory concentration (MIC80)
Procedure: as §2, §3, §4, §5, §6, §7, §8, §9, §10
MIC80 of each of the compounds of which antifungal activities can be confirmed by Table 2 was determined using other test strains, i.e., Aspergillus fumigatus ATCC 16424 and MYA-1163, Aspergillus terreus ATCC 28301, Aspergillus flavus ATCC MYA-1004, and Aspergillus niger ATCC 9142.

[8] = system: Candida albican ATCC 90873; experiment: In vitro antifungal activity (MIC80), Candida albican ATCC 90873; settings: Candida, ATCC90873; Table 2, ATCC 90873; read-out: Minimal inhibitory concentration (MIC80)
In short: as §1

[9] = system: Candida albican ATCC 62342; experiment: In vitro antifungal activity (MIC80), Candida albican ATCC 62342; settings: Candida, ATCC62342; Table 2, 62342; read-out: Minimal inhibitory concentration (MIC80)
In short: as §1

[10] = system: Candida albican ATCC MYA-1003; experiment: In vitro antifungal activity (MIC80), Candida albican ATCC MYA-1003; settings: Candida; Table 2, MYA 1003; read-out: Minimal inhibitory concentration (MIC80)
In short: as §1

[11] = system: Candida albican ATCC MYA-576; experiment: In vitro antifungal activity (MIC80), Candida albican ATCC MYA-576; settings: Candida; Table 2, MYA 576; read-out: Minimal inhibitory concentration (MIC80)
In short: as §1

[12] = system: Candida albican ATCC 64550; experiment: In vitro antifungal activity (MIC80), Candida albican ATCC 64550; settings: Candida, ATCC64550; Table 2, 64550; read-out: Minimal inhibitory concentration (MIC80)
In short: as §1

Row | MIC80 [1] [µg/mL] | MIC80 [2] [µg/mL] | MIC80 [3] [µg/mL] | MIC80 [4] [µg/mL] | MIC80 [5] [µg/mL] | MIC80 [6] [µg/mL] | MIC80 [7] [µg/mL] | MIC80 [8] [µg/mL] | MIC80 [9] [µg/mL] | MIC80 [10] [µg/mL] | MIC80 [11] [µg/mL] | MIC80 [12] [µg/mL] | SMILES
1 | 128 (≈ 307 µM) | 0.125 (≈ 0.299 µM) | 64 (≈ 153 µM) | 64 (≈ 153 µM) | 4 (≈ 9.58 µM) | 128 (≈ 307 µM) | 64 (≈ 153 µM) | 0.125 (≈ 0.299 µM) | 4 (≈ 9.58 µM) | > 128 | 0.25 (≈ 0.599 µM) | 16 (≈ 38.3 µM) | C[C@@H](N1CCN(Cc2ccco2)CC1)[C@](O)(Cn1cncn1)c1ccc(F)cc1F [Example 43, (2R,3R)-2-(2,4-difluorophenyl)-3-(4-((furan-2-yl)methyl)piperazin-1-yl)-1-(1H-1,2,4-triazol-1-yl)butan-2-ol]
2 | > 128 | 0.125 (≈ 0.269 µM) | 4 (≈ 8.61 µM) | 0.5 (≈ 1.08 µM) | 0.25 (≈ 0.538 µM) | > 128 | 0.125 (≈ 0.269 µM) | 0.125 (≈ 0.269 µM) | 0.25 (≈ 0.538 µM) | > 128 | 0.125 (≈ 0.269 µM) | 0.5 (≈ 1.08 µM) | C[C@@H](N1CCN(c2ccc3ccccc3n2)CC1)[C@](O)(Cn1cncn1)c1ccc(F)cc1F [Example 19, (2R,3R)-2-(2,4-difluorophenyl)-3-(4-(quinolin-2-yl)piperazin-1-yl)-1-(1H-1,2,4-triazol-1-yl)butan-2-ol]
3 | 64 (≈ 146 µM) | 0.125 (≈ 0.284 µM) | 16 (≈ 36.4 µM) | 8 (≈ 18.2 µM) | 0.25 (≈ 0.569 µM) | 64 (≈ 146 µM) | 8 (≈ 18.2 µM) | 0.125 (≈ 0.284 µM) | 2 (≈ 4.55 µM) | 32 (≈ 72.8 µM) | 0.125 (≈ 0.284 µM) | 1 (≈ 2.28 µM) | C[C@@H](N1CCN(c2ccc(C#N)nc2)CC1)[C@](O)(Cn1cncn1)c1ccc(F)cc1F [Example 17, 5-(4-((2R,3R)-3-(2,4-difluorophenyl)-3-hydroxy-4-(1H-1,2,4-triazol-1-yl)butan-2-yl)piperazin-1-yl)picolinonitrile]
4 | 8 (≈ 17 µM) | 0.125 (≈ 0.266 µM) | 4 (≈ 8.5 µM) | 2 (≈ 4.25 µM) | 0.25 (≈ 0.531 µM) | 8 (≈ 17 µM) | 0.5 (≈ 1.06 µM) | 0.125 (≈ 0.266 µM) | 0.5 (≈ 1.06 µM) | 128 (≈ 272 µM) | 0.125 (≈ 0.266 µM) | 1 (≈ 2.13 µM) | C[C@@H](N1CCN(c2nc3ccccc3s2)CC1)[C@](O)(Cn1cncn1)c1ccc(F)cc1F [Example 2, (2R,3R)-3-(4-(benzothiazol-2-yl)piperazin-1-yl)-2-(2,4-difluorophenyl)-1-(1H-1,2,4-triazol-1-yl)butan-2-ol]
5 | – | – | – | > 128 | 0.25 (≈ 0.46 µM) | – | 0.126 (≈ 0.232 µM) | 0.126 (≈ 0.232 µM) | – | > 128 | – | – | CC(N1CCN(C(=O)c2nc(-c3ccc(Cl)cc3)no2)CC1)C(O)(Cn1cncn1)c1ccc(F)cc1F [Example 48, (3-(4-chlorophenyl-1,2,4-oxadiazol-5-yl)(4-((2R,3R)-3-(2,4-difluorophenyl)-3-hydroxy-4-(1H-1,2,4-triazol-1-yl)butan-2-yl)piperazin-1-yl)methanone]
6 | > 128 | 0.125 (≈ 0.23 µM) | > 128 | 32 (≈ 58.9 µM) | 4 (≈ 7.36 µM) | > 128 | 1 (≈ 1.84 µM) | 0.125 (≈ 0.23 µM) | 4 (≈ 7.36 µM) | > 128 | 0.125 (≈ 0.23 µM) | 4 (≈ 7.36 µM) | C[C@@H](N1CCN(C(=O)c2nc(-c3ccc(F)cc3)ns2)CC1)[C@](O)(Cn1cncn1)c1ccc(F)cc1F [Example 52, (3-(4-fluorophenyl)-1,2,4-thiadiazol-5-yl)(4-((2R,3R)-3-(2,4-difluorophenyl)-3-hydroxy-4-(1H-1,2,4-triazol-1-yl)butan-2-yl)piperazin-1-yl)methanone]
7 | 64 (≈ 149 µM) | 0.125 (≈ 0.292 µM) | 64 (≈ 149 µM) | 32 (≈ 74.7 µM) | 2 (≈ 4.67 µM) | 64 (≈ 149 µM) | 1 (≈ 2.33 µM) | 0.125 (≈ 0.292 µM) | – | > 128 | 0.125 (≈ 0.292 µM) | 16 (≈ 37.3 µM) | C[C@@H](N1CCN(Cc2ccccn2)CC1)[C@](O)(Cn1cncn1)c1ccc(F)cc1F [Example 41, (2R,3R)-2-(2,4-difluorophenyl)-3-(4-((pyridin-2-yl)methyl)piperazin-1-yl)-1-(1H-1,2,4-triazol-1-yl)butan-2-ol]
8 | – | – | – | > 128 | > 128 | – | 0.126 (≈ 0.214 µM) | 0.125 (≈ 0.212 µM) | – | > 128 | – | – | C[C@@H](N1CCN(C(=O)c2nc(-c3ccc(Br)cc3)no2)CC1)[C@](O)(Cn1cncn1)c1ccc(F)cc1F [Example 46, (3-(4-bromophenyl)-1,2,4-oxadiazol-5-yl)(4-((2R,3R)-3-(2,4-difluorophenyl)-3-hydroxy-4-(1H-1,2,4-triazol-1-yl)butan-2-yl)piperazin-1-yl)methanone]
9 | – | – | – | > 128 | > 128 | – | 0.5 (≈ 0.951 µM) | 0.125 (≈ 0.238 µM) | – | > 128 | – | – | C[C@@H](N1CCN(C(=O)c2nc(-c3ccccc3)ns2)CC1)[C@](O)(Cn1cncn1)c1ccc(F)cc1F [Example 50, (4-((2R,3R)-3-(2,4-difluorophenyl)-3-hydroxy-4-(1H-1,2,4-triazol-1-yl)butan-2-yl)piperazin-1-yl)(3-phenyl-1,2,4-thiadiazol-5-yl)methanone]
10 | – | – | – | > 128 | 4 (≈ 7.2 µM) | – | 0.5 (≈ 0.9 µM) | 0.125 (≈ 0.225 µM) | – | > 128 | – | – | COc1ccc(-c2nsc(C(=O)N3CCN([C@H](C)[C@](O)(Cn4cncn4)c4ccc(F)cc4F)CC3)n2)cc1 [Example 54, (4-((2R,3R)-3-(2,4-difluorophenyl)-3-hydroxy-4-(1H-1,2,4-triazol-1-yl)butan-2-yl)piperazin-1-yl)(3-(4-methoxyphenyl)-1,2,4-thiadiazol-5-yl)methanone]
